From patent US20050281891A1, “Testosterone stimulant” (Ecobio, Inc., priority 2004, published 2005)

Test system: systemic testosterone levels
Assay: Testosterone stimulation in rats: iron, chitosan and iron chitosan chelate vs placebo
Type: in vivo, Sprague Dawley rats
Details: 8-week old rats, oral 200 μL twice a day for 7 days; 0.12 wt % iron lactate, 1 wt % chitosan or 1 wt % iron chitosan chelate
Experimental: The effects of an iron chitosan chelate, chitosan, and iron on systemic testosterone levels in test groups of 8-week old Sprague Dawley rats is observed and compared to a control group. Each of the groups includes 8 rats. The rats of each group are orally administered a liquid composition twice a day, where group 1 receives a carrier composition in the form of a placebo, group 2 receives the carrier enhanced with 200 μL of 0.12 wt % iron lactate, group 3 receives the carrier enhanced with 200 μL of 1 wt % chitosan having a weight average molecular weight of 19,500 Mw, and group 4 receives the carrier enhanced with 200 μL of 1 wt % iron chitosan chelate (chitosan weight average molecular weight 19,500 Mw). The effects of the iron, chitosan, and iron chitosan chelate in systemic testosterone levels are compared to the systemic testosterone levels of the rats administered with the carrier placebo alone. After 7 days of dosing the 4 rat groups twice per day, the impact of the test groups compared to the control group on the rats testosterone levels is recorded, and is set forth in Table 1.

Compound: CC(O)C(=O)[O-].CC(O)C(=O)[O-].[Fe+2] (centres unmarked) [Iron, iron lactate]
- % Increase from Placebo: ˜0%
- Testosterone Level: 358.1 ± 23.6 (pg/100 μL)
